Results reported in ChEMBL document CHEMBL3774354, “Discovery of Selective Histone Deacetylase 6 Inhibitors Using the Quinazoline as the Cap for the Treatment of Cancer” (J Med Chem, 2016).
Activity calls are given as the source filed them. No cut-off for these calls is given here.

Columns and labels:
[1] = AUC (0 to infinity) in Sprague-Dawley rat at 12 mg/kg, iv administered by bolus injection measured up to 24 hrs by LC-MS/MS analysis; assay type: ADME, organism-based; parameters: dose 12 mg/kg, route intravenous, time infinity; settings: in vivo
[2] = molecular target: T1, Protein deacetylase HDAC6 (Homo sapiens, UniProt Q9UBN7); test: Inhibition of HDAC6 in human HeLa cells assessed as induction of tubulin acetylation incubated for 6 hrs by cytoblot assay; assay type: cell-based
T1 sequence (Q9UBN7 whole entry): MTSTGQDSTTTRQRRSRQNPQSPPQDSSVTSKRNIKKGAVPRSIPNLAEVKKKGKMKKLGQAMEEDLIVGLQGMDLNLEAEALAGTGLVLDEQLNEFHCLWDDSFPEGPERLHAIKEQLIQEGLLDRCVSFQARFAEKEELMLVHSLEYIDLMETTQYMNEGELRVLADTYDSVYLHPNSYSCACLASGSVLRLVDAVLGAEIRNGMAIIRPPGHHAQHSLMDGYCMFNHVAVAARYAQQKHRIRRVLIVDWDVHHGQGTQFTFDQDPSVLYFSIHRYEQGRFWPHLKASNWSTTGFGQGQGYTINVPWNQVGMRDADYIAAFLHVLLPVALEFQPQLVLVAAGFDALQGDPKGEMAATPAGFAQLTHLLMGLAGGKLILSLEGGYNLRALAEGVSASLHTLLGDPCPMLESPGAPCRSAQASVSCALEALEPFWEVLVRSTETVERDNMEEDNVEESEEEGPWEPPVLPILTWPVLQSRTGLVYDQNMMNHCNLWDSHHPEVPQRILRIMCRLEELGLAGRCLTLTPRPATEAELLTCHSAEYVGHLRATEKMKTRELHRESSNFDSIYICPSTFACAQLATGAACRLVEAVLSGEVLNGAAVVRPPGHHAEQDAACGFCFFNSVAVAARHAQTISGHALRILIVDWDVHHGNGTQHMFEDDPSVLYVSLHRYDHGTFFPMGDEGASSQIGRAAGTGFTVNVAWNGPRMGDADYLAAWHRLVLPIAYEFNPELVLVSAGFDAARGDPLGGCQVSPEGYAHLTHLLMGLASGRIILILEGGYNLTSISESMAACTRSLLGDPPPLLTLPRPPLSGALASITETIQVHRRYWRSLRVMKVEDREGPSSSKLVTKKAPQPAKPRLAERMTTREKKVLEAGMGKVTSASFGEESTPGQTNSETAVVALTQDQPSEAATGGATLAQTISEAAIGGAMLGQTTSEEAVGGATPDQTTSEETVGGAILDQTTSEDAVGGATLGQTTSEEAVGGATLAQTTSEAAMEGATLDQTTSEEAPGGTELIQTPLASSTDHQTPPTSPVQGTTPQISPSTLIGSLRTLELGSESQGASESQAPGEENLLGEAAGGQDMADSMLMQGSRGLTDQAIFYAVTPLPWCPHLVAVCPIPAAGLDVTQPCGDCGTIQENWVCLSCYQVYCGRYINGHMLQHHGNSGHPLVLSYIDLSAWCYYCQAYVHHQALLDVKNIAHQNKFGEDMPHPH

Histone deacetylase 11 = Histone deacetylase 11 (Homo sapiens, UniProt Q96DB2)
Chain of Histone deacetylase 11 (Q96DB2 whole entry): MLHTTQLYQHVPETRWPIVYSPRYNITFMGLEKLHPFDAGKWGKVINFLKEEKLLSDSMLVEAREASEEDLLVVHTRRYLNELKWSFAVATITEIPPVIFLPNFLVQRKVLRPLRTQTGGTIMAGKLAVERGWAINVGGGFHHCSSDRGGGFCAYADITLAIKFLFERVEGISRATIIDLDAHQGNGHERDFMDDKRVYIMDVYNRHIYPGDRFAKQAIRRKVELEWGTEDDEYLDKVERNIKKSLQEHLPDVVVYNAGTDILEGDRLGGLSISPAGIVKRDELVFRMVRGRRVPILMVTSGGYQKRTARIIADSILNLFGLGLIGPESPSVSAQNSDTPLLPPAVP
Description: Inhibition of recombinant HDAC11 (unknown origin) using AMC labeled AC-peptide as substrate incubated for 1 hr by fluorescence analysis

HeLa [3] = test: Induction of histone H3 acetylation in human HeLa cells incubated for 6 hrs by cytoblot assay; assay type: functional, cell-based
Histone deacetylase 9 = Histone deacetylase 9 (Homo sapiens, UniProt Q9UKV0); test: Inhibition of recombinant HDAC9 (unknown origin) using AMC labeled AC-peptide as substrate at 10 uM incubated for 1 hr by fluorescence analysis
Chain of Histone deacetylase 9 (Q9UKV0 whole entry): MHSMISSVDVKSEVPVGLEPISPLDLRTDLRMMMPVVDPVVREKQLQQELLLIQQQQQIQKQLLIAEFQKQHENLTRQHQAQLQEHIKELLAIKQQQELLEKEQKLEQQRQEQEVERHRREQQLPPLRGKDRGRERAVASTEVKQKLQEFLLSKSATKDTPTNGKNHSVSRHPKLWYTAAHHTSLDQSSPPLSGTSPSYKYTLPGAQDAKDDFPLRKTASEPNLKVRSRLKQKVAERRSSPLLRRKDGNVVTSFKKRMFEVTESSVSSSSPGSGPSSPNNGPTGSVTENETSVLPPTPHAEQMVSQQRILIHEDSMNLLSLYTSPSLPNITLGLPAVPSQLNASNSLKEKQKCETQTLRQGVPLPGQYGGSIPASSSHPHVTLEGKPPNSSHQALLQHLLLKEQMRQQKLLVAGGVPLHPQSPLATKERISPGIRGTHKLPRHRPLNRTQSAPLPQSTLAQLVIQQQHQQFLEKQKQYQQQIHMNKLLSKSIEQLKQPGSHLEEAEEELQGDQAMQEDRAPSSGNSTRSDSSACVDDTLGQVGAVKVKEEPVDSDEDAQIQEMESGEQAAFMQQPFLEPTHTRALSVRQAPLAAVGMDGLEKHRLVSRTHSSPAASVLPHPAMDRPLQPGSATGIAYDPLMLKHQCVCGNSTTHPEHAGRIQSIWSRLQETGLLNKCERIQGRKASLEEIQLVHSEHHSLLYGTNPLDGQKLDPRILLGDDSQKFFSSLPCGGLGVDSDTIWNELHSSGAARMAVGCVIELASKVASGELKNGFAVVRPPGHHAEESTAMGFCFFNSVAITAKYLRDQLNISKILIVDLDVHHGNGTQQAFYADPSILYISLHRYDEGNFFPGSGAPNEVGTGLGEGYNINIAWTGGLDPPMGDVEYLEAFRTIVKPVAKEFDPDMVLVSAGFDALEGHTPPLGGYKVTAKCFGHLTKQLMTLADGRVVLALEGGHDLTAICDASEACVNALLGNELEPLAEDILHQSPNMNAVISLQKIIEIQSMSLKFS

HepG2 = test: Cytotoxicity against human HepG2 cells after 72 hrs by MTT assay; assay type: functional, cell-based; settings: HepG2, 72 h
[4] = AUC (0 to infinity) in Sprague-Dawley rat at 12 mg/kg, po measured up to 24 hrs by LC-MS/MS analysis; assay type: ADME, organism-based; parameters: dose 12 mg/kg, route oral, time infinity; settings: in vivo
[5] = molecular target: Histone deacetylase 1/2/3 (Homo sapiens) (UniProt Q13547+O15379+Q92769); settings: MV4-11, 1000 nM
Description: Inhibition of HDAC1/2/3 in human MV4-11 cells assessed as upregulation of histone H3 acetylation at 1000 nM after 6 hrs by Western blot analysis

Mus musculus [6] = test: Toxicity in Balb/c nude mouse xenografted with human HCT116 cells assessed as change in body weight at 50 mg/kg, iv q2d for 9 days; assay type: organism-based, HCT-116; settings: in vivo, 216 h
HeLa [7] = test: Antiproliferative activity against human HeLa cells after 72 hrs by MTT assay; assay type: functional, cell-based
[8] = Volume of distribution at steady state in Sprague-Dawley rat at 12 mg/kg, iv administered by bolus injection measured up to 24 hrs by LC-MS/MS analysis; assay type: ADME, organism-based; settings: in vivo, read-out: Vdss
A2780 = test: Cytotoxicity against human A2780 cells after 72 hrs by MTT assay; assay type: functional, cell-based; settings: A2780, 72 h
Mus musculus [9] = test: Toxicity in Balb/c nude mouse xenografted with human HCT116 cells assessed as death at 50 mg/kg, iv q2d for 9 days; assay type: organism-based, HCT-116; settings: in vivo, 216 h
Ramos = test: Antitumor activity against human Ramos cells xenografted in orally dosed NOD/SCID mouse assessed as tumor mass reduction administered as q2d for 6 days; assay type: functional, organism-based
A-375 = test: Antiproliferative activity against human A375 cells after 72 hrs by MTT assay; assay type: functional, cell-based; settings: A-375, 72 h
Mus musculus [10] = test: Toxicity in NOD/SCID mouse xenografted with human MV4-11 cells assessed as death at 50 mg/kg, iv q2d for 12 days; assay type: organism-based; settings: in vivo, 288 h
[11] = Cytotoxicity against human HCT116 cells after 72 hrs by MTT assay; assay type: functional, cell-based; settings: HCT-116, 72 h
[12] = Antitumor activity against human HCT116 cells xenografted in Balb/c nude mouse assessed as tumor mass change at 50 mg/kg, iv q2d for 9 days; assay type: functional, HCT-116
K562 = test: Cytotoxicity against human K562 cells after 72 hrs by MTT assay; assay type: functional, cell-based; settings: K562, 72 h
Histone deacetylase 5 = Histone deacetylase 5 (Homo sapiens, UniProt Q9UQL6); test: Inhibition of recombinant HDAC5 (unknown origin) using AMC labeled AC-peptide as substrate at 10 uM incubated for 1 hr by fluorescence analysis
Chain of Histone deacetylase 5 (Q9UQL6 whole entry): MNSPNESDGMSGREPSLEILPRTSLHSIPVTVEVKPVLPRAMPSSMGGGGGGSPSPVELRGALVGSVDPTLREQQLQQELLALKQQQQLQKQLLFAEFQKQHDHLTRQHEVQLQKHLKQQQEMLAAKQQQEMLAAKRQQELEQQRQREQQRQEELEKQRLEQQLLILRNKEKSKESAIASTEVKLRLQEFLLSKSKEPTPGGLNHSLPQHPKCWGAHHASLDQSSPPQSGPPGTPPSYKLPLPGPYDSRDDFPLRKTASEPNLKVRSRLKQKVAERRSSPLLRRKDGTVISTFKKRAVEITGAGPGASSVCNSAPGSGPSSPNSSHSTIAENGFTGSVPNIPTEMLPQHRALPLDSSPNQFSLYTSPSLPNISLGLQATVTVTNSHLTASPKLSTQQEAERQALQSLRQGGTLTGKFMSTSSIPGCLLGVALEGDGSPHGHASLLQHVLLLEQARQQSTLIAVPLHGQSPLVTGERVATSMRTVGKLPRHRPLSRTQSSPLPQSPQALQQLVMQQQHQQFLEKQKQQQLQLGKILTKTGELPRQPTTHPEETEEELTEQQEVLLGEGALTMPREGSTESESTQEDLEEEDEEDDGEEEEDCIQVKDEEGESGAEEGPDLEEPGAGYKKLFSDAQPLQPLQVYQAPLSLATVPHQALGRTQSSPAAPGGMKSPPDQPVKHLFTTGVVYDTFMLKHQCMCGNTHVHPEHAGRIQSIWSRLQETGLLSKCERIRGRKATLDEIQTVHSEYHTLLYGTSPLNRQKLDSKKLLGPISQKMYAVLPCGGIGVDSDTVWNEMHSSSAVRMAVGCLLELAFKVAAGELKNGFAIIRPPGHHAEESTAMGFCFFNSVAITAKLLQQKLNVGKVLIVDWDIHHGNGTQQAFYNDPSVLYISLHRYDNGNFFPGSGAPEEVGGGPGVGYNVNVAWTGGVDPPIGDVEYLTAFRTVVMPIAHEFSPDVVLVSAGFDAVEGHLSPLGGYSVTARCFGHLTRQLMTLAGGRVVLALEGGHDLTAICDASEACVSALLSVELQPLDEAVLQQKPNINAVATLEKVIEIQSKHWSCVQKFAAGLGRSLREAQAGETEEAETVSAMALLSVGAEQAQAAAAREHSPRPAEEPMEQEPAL

MV4-11 = test: Cytotoxicity against human MV4-11 cells after 72 hrs by MTT assay; assay type: functional, cell-based; settings: MV4-11, 72 h

Which results are given for COc1ccc(N(C)c2nc(C)nc3ccccc23)cc1OCCCC(=O)NO?
AUC(0-inf) [1]: 2430 ng·h/mL; EC50 [2]: 58.9 nM; IC50 (Histone deacetylase 11): > 10000 nM; EC50 (HeLa [3]): 1740 nM; inhibition (Histone deacetylase 9): inactive; IC50 (HepG2): 41 nM; AUC(0-inf) [4]: 1240 ng·h/mL; inhibition [5]: Active; Activity (Mus musculus [6]): -5.7%; IC50 (HeLa [7]): 49 nM; Vd [8]: 61.3 L/kg; IC50 (A2780): 46 nM; Activity (Mus musculus [9]): Non-toxic; inhibition (Ramos): Dose-dependent effect; IC50 (A-375): 45 nM; Activity (Mus musculus [10]): Non-toxic; IC50 [11]: 35 nM; Activity [12]: 76.3%; IC50 (K562): 63 nM; inhibition (Histone deacetylase 5): inactive; IC50 (MV4-11): 60 nM
